Patent US20240238268A1, “TREATMENTS AND METHODS FOR TREATING ALZHEIMER'S DISEASE” (Board of Supervisors of Louisiana State University and …, priority 2021, published 2024)

How the values were obtained:
Type in all cases: in vivo, mouse
VCAM-1 = VCAM-1 level, protein chip assay; details: aged 3xTg-AD female mice; cortex and hippocampus; 30 mg/kg, 7 days, IP
Protocol: (§1) FIGS. 19A-19F are six graphs showing PRMT4 inhibitor (TP-064) reduced ICAM-1, VCAM-1 and enhanced E-Cadherin protein levels in aged female 3xTg-AD mice. In FIGS. 19A-19D, aged 3xTg-AD female mice v. […] Adhesion molecules were assessed via protein chip assay in the cortex and hippocampus. * p<0.05 evaluated by one-way ANOVA with Tukey's post-hoc analyses.

E-Cadherin = E-Cadherin level, protein chip assay; details: aged 3xTg-AD female mice; cortex and hippocampus; 30 mg/kg, 7 days, IP
Protocol: as §1

iNOS = iNOS protein level in brain, capillary-phoresis; details: treated 3xTg-AD mice; control = 100%
From the text: Capillary-phoresis immunoassay via ProteinSimple®: Quantification of all protein targets was achieved using Simple Western analysis in a Jess™ apparatus per the manufacturer's protocol (ProteinSimple, Bio-techne, Minneapolis, MN). Protein was extracted from dissected tissue in an extraction buffer consisting of T-PER® Tissue Protein Extraction Reagent (Cat. No. 78510, Thermo Fischer Scientific, Waltham, MA) and Halt™ Protease Inhibitor Cocktail (Cat. No. 87785, Thermo Fischer Scientific, Waltham, MA). Following homogenization and centrifugation (10,000×g, 5 min, 4° C.), protein concentration was determined in tissue protein supernatant samples using DC Protein Assay (Cat. No. 5000112, Bio-Rad Laboratories, Hercules, California) according to manufacturer instructions. […] Antibody diluent (ProteinSimple, Bio-techne, Minneapolis, MN) was used for all antibody dilutions as follows: PRMT4 (1:50, RRID: AB_2068436), PRMT6 (1:100, Cell Signaling Technology cat. 14641), eNOS (1:200, RRID: AB_10850618), nNOS (1:100, RRID: AB_2152488), iNOS (1:100, RRID: AB_10000625), DDAH2 (1:50, RRID: AB_2640442) Antibodies were detected using HRP-conjugated secondary anti-rabbit, and -mouse. Relative protein levels were calculated by measuring the area under the peak of a chemiluminescent chromatogram and normalized to total capillary chemiluminescence for a given sample. […]

aged 3xTg-AD female mice [1] = assay: Regional cortical cerebral blood flow, laser speckle contrast imaging; details: 3xTg-AD mice; 30 mg/kg, IP, 7 days; untreated C57BL/6J = 100%
Protocol: (§2) Surgical Preparation and Anesthetic Procedure: Mice were anesthetized with 4% isoflurane (Cat. No. 21295098, Patterson Veterinary, Greeley, CO) and a mixture of O2 and N2O (30:70) via mask. Hair was shaved at the site of surgery (from the nape up to the eyes). Body temperature was maintained at 37° C. by a rodent heating pad with anal probe as a temperature reference (ThermoStar, RWD Life Science, San Diego, CA). Anesthesia was maintained by lowering isoflurane from 4% to 1%.
(§3) Thinned-skull preparation: Mice were placed in a stereotaxic frame to stabilize the skull and artificial tears (Patterson Veterinary, Greeley, CO) was applied in each eye. Dissection scissors and forceps were used to reveal the skull. A high-speed dental drill (RWD Life Science, San Diego, CA) was used to thin the skull creating a small window (1 mm in diameter) approximately 2 mm rostral and 1 mm lateral to the lambda, with saline irrigation to prevent overheating of the skull tissue. Laser speckle contrast imaging or two-photon laser scanning microscopy analyses were conducted following this preparation.
(§4) Laser speckle contrast imaging: Cerebral microvasculature was imaged by utilizing the thin skull preparation method. After thinning the skull, the mouse was placed in a stereotaxic apparatus. […]

C57BL/6J mice = assay: Regional cortical cerebral blood flow, laser speckle contrast imaging, C57 mice
Protocol: as §2, §3, §4

aged 3xTg-AD female mice [2] = assay: Leukocyte rolling velocity, two-photon laser scanning microscopy
Protocol: FIGS. 17A-17D show leukocyte rolling velocity was reduced in aged 3xTg-AD female mice.
Leukocytes velocity measurements were performed by linescans (512 lines/sec). *p<0.05 compared to aged 3xTg-AD male or C57 female evaluated by unpaired t-test. FIGS. 18A and 18B are capillary-based immunoassay and associated graphs showing PRMT4 inhibitor (TP-064) or AAV knockdown of PRMT4 reduced GFAP levels in aged 3xTg-AD female mice. Glial fibrillary acidic protein (GFAP, 55 kDa) was increased in aged 3xTg-AD female mice v. C57, which indicates neuroinflammation, but reversed with TP-064 (30 mg/kg, 7 days, IP) or PRMT4-AAV treatment in cortex, shown in FIG. 18A, and hippocampus, shown in FIG. 18B. Protein level was measured by capillary-based immunoassay and normalized to total protein. *p<0.05 as compared to C57, #p<0.05 v. 3xTg-AD evaluated by one-way ANOVA with Tukey's post-hoc analyses.

[3] = Toxicity: blood counts, liver enzymes, kidney function
From the text: The inventors have on-going studies to screen for major organ toxicity. Plasma liver enzymes (ALT/AST) and kidney function were normal in TP-064-treated mice.

SMILES: CNCCN1CCC(c2cc(CN(C)C(=O)c3cccc(Oc4ccccc4)c3)ccn2)CC1 [TP-064, N-Methyl-N-((2-(1-(2-(methylamino)ethyl)piperidin-4-yl)pyridin-4-yl)methyl)-3-phenoxybenzamide]
- VCAM-1 level (VCAM-1): decreased
- E-Cadherin level (E-Cadherin): elevated
- iNOS level in cortical lysates (iNOS): 197%±24.1
- iNOS level in hippocampal lysates (iNOS): 157%±17.5
- regional cortical CBF (aged 3xTg-AD female mice [1]): 194%±8.6
- perfusion (C57BL/6J mice; C57 mice, decreased PRMT4 via TP-064/PRMT4-AAV): did not affect
- regional cortical CBF (C57BL/6J mice; treated C57BL/6J mice, 30 mg/kg, IP, 7 days): 98.3±10.1%
- leukocyte rolling velocity (aged 3xTg-AD female mice [2]): increased
- complete blood counts ([3]; mice treated 7 days): no abnormalities
- Plasma liver enzymes (ALT/AST) ([3]; treated mice): normal
- kidney function ([3]; treated mice): normal
